Experimental data as given in ChEMBL document CHEMBL4507284, “Data for DCP probe BI-1230” (2021).

What was measured:
[1] = test system: Mast/stem cell growth factor receptor Kit (Homo sapiens), P10721 [V559D]; details: Compound concentration 1000.0 nM
[2] = target: Phosphorylase b kinase gamma catalytic chain, skeletal muscle/heart isoform (Homo sapiens) (UniProt Q16816); details: Compound concentration 1000.0 nM
[3] = target: Histamine H4 receptor (Homo sapiens) (UniProt Q9H3N8); details: Compound concentration 10.0 uM
[4] = target: cGMP-dependent protein kinase 1 (Homo sapiens) (UniProt Q13976); details: Compound concentration 1000.0 nM
[5] = target: Serine/threonine-protein kinase Chk1 (Homo sapiens) (UniProt O14757); details: Compound concentration 1000.0 nM
[6] = target: D(4) dopamine receptor (Homo sapiens) (UniProt P21917); details: Compound concentration 10.0 uM
[7] = target: Casein kinase I isoform epsilon (Homo sapiens) (UniProt P49674); details: Compound concentration 1000.0 nM
[8] = target: TGF-beta receptor type-2 (Homo sapiens) (UniProt P37173); details: Compound concentration 1000.0 nM
[9] = target: Calcium/calmodulin-dependent protein kinase type 1B (Homo sapiens) (UniProt Q6P2M8); details: Compound concentration 1000.0 nM
[10] = target: Peripheral plasma membrane protein CASK (Homo sapiens) (UniProt O14936); details: Compound concentration 1000.0 nM
[11] = target: Tyrosine-protein kinase Tec (Homo sapiens) (UniProt P42680); details: Compound concentration 1000.0 nM
[12] = target: Myosin light chain kinase family member 4 (Homo sapiens) (UniProt Q86YV6); details: Compound concentration 1000.0 nM
[13] = target: Serine/threonine-protein kinase Nek9 (Homo sapiens) (UniProt Q8TD19); details: Compound concentration 1000.0 nM
[14] = target: Mitogen-activated protein kinase kinase kinase 9 (Homo sapiens) (UniProt P80192); details: Compound concentration 1000.0 nM
[15] = target: cAMP-dependent protein kinase catalytic subunit beta (Homo sapiens) (UniProt P22694); details: Compound concentration 1000.0 nM
[16] = target: Activated CDC42 kinase 1 (Homo sapiens) (UniProt Q07912); details: Compound concentration 1000.0 nM
[17] = target: Tyrosine-protein kinase JAK1 (Homo sapiens) (UniProt P23458); details: Compound concentration 1000.0 nM
[18] = target: Dual specificity mitogen-activated protein kinase kinase 1 (Homo sapiens) (UniProt Q02750); details: Compound concentration 1000.0 nM
[19] = target: Cyclin-dependent kinase 14 (Homo sapiens) (UniProt O94921); details: Compound concentration 1000.0 nM
[20] = target: Homeodomain-interacting protein kinase 2 (Homo sapiens) (UniProt Q9H2X6); details: Compound concentration 1000.0 nM
[21] = target: Cyclin-dependent kinase 4 (Homo sapiens) (UniProt P11802); details: Compound concentration 1000.0 nM
[22] = target: Bone morphogenetic protein receptor type-1A (Homo sapiens) (UniProt P36894); details: Compound concentration 1000.0 nM
[23] = target: Muscarinic acetylcholine receptor M1 (Homo sapiens) (UniProt P11229); details: Compound concentration 10.0 uM
[24] = target: Cyclin-dependent kinase 16 (Homo sapiens) (UniProt Q00536); details: Compound concentration 1000.0 nM
[25] = target: Mitogen-activated protein kinase kinase kinase kinase 4 (Homo sapiens) (UniProt O95819); details: Compound concentration 1000.0 nM
[26] = target: Casein kinase I isoform gamma-1 (Homo sapiens) (UniProt Q9HCP0); details: Compound concentration 1000.0 nM
[27] = target: Mitogen-activated protein kinase 11 (Homo sapiens) (UniProt Q15759); details: Compound concentration 1000.0 nM
[28] = target: G protein-coupled receptor kinase 4 (Homo sapiens) (UniProt P32298); details: Compound concentration 1000.0 nM
[29] = target: Cyclin-dependent kinase 17 (Homo sapiens) (UniProt Q00537); details: Compound concentration 1000.0 nM
[30] = target: Delta-type opioid receptor (Homo sapiens) (UniProt P41143); details: Compound concentration 10.0 uM
[31] = target: Ephrin type-A receptor 7 (Homo sapiens) (UniProt Q15375); details: Compound concentration 1000.0 nM
[32] = target: D(1B) dopamine receptor (Homo sapiens) (UniProt P21918); details: Compound concentration 10.0 uM
[33] = target: Cyclin-dependent kinase 4 (Homo sapiens) (UniProt P11802); details: Compound concentration 1000.0 nM; remark: listed apart in the source
[34] = target: Serine/threonine-protein kinase PRP4 homolog (Homo sapiens) (UniProt Q13523); details: Compound concentration 1000.0 nM
[35] = target: Dual specificity mitogen-activated protein kinase kinase 4 (Homo sapiens) (UniProt P45985); details: Compound concentration 1000.0 nM
[36] = test system: Receptor-type tyrosine-protein kinase FLT3 (Homo sapiens), P36888 [N841I]; details: Compound concentration 1000.0 nM
[37] = test system: Proto-oncogene tyrosine-protein kinase receptor Ret (Homo sapiens), P07949 [M918T]; details: Compound concentration 1000.0 nM
[38] = target: Serine/threonine-protein kinase Nek11 (Homo sapiens) (UniProt Q8NG66); details: Compound concentration 1000.0 nM
[39] = target: cGMP-dependent protein kinase 2 (Homo sapiens) (UniProt Q13237); details: Compound concentration 1000.0 nM
[40] = target: Ribosomal protein S6 kinase alpha-1 (Homo sapiens) (UniProt Q15418); details: Compound concentration 1000.0 nM
[41] = target: Rhodopsin kinase GRK1 (Homo sapiens) (UniProt Q15835); details: Compound concentration 1000.0 nM
[42] = target: Cyclin-dependent kinase 2 homolog (Plasmodium falciparum (isolate 3D7)) (UniProt P61075); details: Compound concentration 1000.0 nM
[43] = target: Sigma non-opioid intracellular receptor 1 (Homo sapiens) (UniProt Q99720); details: Compound concentration 10.0 uM
[44] = target: Dual specificity protein kinase CLK3 (Homo sapiens) (UniProt P49761); details: Compound concentration 1000.0 nM
[45] = target: Leucine-rich repeat serine/threonine-protein kinase 2 (Homo sapiens) (UniProt Q5S007); details: Compound concentration 1000.0 nM

Cyclin-dependent kinase 4 (Homo sapiens), sequence (P11802 whole entry): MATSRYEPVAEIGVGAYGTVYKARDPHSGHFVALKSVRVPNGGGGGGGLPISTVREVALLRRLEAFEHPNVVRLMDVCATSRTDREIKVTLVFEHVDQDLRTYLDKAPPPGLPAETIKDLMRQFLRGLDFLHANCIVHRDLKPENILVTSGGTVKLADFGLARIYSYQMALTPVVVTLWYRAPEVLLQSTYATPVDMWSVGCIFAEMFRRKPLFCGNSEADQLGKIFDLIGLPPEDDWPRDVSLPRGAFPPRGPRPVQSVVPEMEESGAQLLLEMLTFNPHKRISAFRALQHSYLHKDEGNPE
Mitogen-activated protein kinase kinase kinase kinase 4 (Homo sapiens), sequence (O95819 2-1239 limits assumed): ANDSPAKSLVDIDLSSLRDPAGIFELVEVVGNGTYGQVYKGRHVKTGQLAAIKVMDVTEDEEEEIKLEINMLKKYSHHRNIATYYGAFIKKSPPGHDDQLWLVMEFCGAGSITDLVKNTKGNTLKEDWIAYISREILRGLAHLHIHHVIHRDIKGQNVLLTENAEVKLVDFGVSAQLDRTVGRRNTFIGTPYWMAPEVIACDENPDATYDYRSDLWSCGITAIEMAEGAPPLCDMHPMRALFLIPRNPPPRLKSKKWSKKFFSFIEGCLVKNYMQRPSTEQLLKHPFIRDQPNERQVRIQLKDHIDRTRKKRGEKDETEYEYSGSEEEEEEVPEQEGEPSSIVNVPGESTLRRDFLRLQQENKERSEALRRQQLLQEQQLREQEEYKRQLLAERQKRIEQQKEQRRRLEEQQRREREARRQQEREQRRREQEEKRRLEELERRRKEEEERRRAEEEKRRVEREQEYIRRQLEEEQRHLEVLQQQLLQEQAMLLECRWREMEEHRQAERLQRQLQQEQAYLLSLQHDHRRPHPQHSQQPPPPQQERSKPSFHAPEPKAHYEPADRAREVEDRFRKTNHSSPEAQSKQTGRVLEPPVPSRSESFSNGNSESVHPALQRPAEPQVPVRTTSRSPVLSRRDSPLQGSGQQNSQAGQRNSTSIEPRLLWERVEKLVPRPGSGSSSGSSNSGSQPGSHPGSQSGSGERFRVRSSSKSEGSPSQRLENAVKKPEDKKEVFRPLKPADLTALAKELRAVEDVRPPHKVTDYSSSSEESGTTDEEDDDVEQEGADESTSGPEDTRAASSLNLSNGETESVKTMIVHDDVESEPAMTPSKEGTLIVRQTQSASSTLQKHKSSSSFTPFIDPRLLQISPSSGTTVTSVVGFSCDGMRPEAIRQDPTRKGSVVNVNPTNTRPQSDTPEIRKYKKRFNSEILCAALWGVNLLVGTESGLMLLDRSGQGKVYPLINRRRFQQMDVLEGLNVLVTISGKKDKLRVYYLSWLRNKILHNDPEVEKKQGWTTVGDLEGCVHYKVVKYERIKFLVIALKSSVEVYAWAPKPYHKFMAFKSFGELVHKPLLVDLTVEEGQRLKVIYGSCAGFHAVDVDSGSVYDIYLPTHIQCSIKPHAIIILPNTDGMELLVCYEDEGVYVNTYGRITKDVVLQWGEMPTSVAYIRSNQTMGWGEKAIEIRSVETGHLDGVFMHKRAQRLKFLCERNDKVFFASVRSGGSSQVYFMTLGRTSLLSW
Serine/threonine-protein kinase PRP4 homolog (Homo sapiens), sequence (Q13523 whole entry): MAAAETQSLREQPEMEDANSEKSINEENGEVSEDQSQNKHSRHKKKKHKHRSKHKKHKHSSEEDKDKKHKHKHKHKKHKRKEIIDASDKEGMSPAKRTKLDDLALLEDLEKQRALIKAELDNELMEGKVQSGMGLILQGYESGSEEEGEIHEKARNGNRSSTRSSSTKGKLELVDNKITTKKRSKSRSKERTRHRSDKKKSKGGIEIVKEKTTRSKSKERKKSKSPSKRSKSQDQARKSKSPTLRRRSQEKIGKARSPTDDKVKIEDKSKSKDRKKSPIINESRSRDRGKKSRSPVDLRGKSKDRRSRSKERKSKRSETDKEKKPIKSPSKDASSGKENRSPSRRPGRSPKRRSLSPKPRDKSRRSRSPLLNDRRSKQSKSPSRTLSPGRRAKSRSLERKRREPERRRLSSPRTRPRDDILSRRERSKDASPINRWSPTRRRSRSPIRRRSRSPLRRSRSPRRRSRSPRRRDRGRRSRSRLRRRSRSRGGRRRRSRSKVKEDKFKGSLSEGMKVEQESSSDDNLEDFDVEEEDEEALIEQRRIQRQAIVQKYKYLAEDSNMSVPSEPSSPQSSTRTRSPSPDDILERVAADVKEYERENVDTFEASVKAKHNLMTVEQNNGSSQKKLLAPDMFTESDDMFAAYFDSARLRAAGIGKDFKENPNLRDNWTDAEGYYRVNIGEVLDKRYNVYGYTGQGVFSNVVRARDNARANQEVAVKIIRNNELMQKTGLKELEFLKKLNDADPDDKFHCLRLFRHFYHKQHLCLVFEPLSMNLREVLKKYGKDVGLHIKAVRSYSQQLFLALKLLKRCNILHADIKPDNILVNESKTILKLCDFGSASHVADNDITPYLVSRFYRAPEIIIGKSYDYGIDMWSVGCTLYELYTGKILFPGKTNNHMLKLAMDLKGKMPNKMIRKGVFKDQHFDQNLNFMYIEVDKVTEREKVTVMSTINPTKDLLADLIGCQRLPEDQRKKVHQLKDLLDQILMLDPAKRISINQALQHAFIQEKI
D(1B) dopamine receptor (Homo sapiens), sequence (P21918 whole entry): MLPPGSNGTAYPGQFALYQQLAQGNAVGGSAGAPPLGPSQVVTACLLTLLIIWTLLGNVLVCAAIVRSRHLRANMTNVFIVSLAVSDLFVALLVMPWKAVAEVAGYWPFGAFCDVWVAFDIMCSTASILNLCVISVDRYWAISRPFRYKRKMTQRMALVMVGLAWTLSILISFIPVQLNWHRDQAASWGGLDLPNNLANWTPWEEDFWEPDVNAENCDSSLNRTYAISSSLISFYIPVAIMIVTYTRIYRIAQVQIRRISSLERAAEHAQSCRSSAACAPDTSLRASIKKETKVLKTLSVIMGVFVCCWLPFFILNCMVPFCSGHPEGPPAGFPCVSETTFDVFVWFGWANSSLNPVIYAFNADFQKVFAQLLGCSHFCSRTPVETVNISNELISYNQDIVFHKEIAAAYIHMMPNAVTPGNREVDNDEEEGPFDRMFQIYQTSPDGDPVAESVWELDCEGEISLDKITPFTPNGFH
Mitogen-activated protein kinase 11 (Homo sapiens), sequence (Q15759 whole entry): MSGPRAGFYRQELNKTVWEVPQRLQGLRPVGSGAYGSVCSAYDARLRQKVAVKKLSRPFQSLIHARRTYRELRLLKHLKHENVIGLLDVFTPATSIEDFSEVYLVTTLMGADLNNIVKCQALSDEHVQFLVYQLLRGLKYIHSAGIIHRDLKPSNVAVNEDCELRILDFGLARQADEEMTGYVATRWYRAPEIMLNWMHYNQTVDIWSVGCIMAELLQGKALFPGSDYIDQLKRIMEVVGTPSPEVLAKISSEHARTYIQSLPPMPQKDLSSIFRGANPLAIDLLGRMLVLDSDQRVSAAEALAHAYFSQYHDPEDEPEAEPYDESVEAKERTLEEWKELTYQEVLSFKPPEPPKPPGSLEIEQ
Ephrin type-A receptor 7 (Homo sapiens), sequence (Q15375 28-998 limits assumed): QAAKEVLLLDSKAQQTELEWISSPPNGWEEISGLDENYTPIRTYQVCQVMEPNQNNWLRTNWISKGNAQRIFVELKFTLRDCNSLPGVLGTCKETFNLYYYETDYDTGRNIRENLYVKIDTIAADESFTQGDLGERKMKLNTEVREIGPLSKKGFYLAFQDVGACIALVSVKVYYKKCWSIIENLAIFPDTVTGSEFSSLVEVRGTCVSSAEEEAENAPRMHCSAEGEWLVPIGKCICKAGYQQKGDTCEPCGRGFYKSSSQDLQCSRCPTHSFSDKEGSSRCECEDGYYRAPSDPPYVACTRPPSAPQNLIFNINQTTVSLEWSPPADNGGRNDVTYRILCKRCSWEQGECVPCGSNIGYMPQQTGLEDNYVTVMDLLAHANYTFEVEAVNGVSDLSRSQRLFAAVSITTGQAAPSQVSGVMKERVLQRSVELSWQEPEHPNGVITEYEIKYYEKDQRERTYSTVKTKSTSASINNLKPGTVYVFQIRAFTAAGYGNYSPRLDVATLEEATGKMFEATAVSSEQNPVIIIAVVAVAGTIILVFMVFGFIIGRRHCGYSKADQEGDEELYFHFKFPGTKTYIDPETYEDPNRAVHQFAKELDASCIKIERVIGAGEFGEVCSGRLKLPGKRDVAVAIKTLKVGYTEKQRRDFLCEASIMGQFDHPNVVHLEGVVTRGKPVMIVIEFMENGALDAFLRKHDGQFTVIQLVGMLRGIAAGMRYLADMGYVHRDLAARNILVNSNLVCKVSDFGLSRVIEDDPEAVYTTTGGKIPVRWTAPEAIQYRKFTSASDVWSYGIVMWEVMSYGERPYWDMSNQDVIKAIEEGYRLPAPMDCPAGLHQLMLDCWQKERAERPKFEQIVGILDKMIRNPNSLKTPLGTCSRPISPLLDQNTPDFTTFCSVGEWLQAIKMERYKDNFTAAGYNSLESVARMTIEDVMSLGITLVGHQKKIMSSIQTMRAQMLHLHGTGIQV
Casein kinase I isoform gamma-1 (Homo sapiens), sequence (Q9HCP0 whole entry, looked up, canonical isoform): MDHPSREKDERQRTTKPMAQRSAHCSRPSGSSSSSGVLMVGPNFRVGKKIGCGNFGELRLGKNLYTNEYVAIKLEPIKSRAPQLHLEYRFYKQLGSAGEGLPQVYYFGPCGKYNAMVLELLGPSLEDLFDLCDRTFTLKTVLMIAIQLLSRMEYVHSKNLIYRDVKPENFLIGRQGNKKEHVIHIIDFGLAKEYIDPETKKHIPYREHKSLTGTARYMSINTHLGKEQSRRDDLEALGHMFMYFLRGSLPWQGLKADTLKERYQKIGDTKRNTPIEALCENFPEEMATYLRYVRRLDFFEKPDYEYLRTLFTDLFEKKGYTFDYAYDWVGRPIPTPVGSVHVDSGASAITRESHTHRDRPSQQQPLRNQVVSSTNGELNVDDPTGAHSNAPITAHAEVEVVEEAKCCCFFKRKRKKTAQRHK
Sigma non-opioid intracellular receptor 1 (Homo sapiens), sequence (Q99720 whole entry): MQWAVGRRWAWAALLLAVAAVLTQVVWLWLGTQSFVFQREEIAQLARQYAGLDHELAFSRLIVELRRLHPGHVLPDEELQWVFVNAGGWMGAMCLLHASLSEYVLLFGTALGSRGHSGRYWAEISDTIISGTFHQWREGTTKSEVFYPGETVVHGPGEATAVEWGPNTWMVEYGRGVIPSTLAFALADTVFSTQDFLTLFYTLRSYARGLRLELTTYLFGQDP

COc1ccc2c(O[C@@H]3C[C@H]4C(=O)N[C@]5(C(=O)O)CC5/C=C\CCCCC[C@H](NC(=O)OC5CCCC5)C(=O)N4C3)cc(-c3csc(NC(=O)C(C)C)n3)nc2c1C (stereo not given in full) [BI 1230]
inactive: residual activity [1] 91% | residual activity [2] 96% | inhibition [3] 43.5% | residual activity [4] 100% | residual activity [5] 100% | inhibition [6] 24.6% | residual activity [7] 100% | residual activity [8] 93% | residual activity [9] 88% | residual activity [10] 97% | residual activity [11] 100% | residual activity [12] 81% | residual activity [13] 100% | residual activity [14] 100% | residual activity [15] 100% | residual activity [16] 100% | residual activity [17] 75% | residual activity [18] 85% | residual activity [19] 88% | residual activity [20] 68% | residual activity [21] 88% | residual activity [22] 100% | inhibition [23] 8.82% | residual activity [24] 79% | residual activity [25] 100% | residual activity [26] 94% | residual activity [27] 100% | residual activity [28] 67% | residual activity [29] 100% | inhibition [30] 45.8% | residual activity [31] 100% | inhibition [32] 47.1% | residual activity [33] 74% | residual activity [34] 93% | residual activity [35] 100% | residual activity [36] 89% | residual activity [37] 97% | residual activity [38] 84% | residual activity [39] 84% | residual activity [40] 100% | residual activity [41] 100% | residual activity [42] 83% | inhibition [43] 42.1% | residual activity [44] 100% | residual activity [45] 92%

O=C(N[C@H]1CCCCC/C=C\C2C[C@@]2(C(=O)O)NC(=O)[C@@H]2C[C@@H](Oc3ccncc3)CN2C1=O)OC1CCCC1 (stereo not given in full) [BI 1675]
inactive: residual activity [1] 89% | residual activity [2] 88% | inhibition [3] -8.87% | residual activity [4] 100% | residual activity [5] 79% | inhibition [6] 9.26% | residual activity [7] 67% | residual activity [8] 85% | residual activity [9] 99% | residual activity [10] 89% | residual activity [11] 100% | residual activity [12] 100% | residual activity [13] 100% | residual activity [14] 97% | residual activity [15] 100% | residual activity [16] 100% | residual activity [17] 89% | residual activity [18] 92% | residual activity [19] 91% | residual activity [20] 100% | residual activity [21] 89% | residual activity [22] 100% | inhibition [23] 14.1% | residual activity [24] 83% | residual activity [25] 100% | residual activity [26] 88% | residual activity [27] 100% | residual activity [28] 80% | residual activity [29] 89% | inhibition [30] -2.02% | residual activity [31] 100% | inhibition [32] 11.3% | residual activity [33] 100% | residual activity [34] 92% | residual activity [35] 73% | residual activity [36] 100% | residual activity [37] 96% | residual activity [38] 100% | residual activity [39] 88% | residual activity [40] 82% | residual activity [41] 100% | residual activity [42] 78% | inhibition [43] 11.1% | residual activity [44] 93% | residual activity [45] 100%
